In PubChem BioAssay AID2060897 (Molecular Pharmacology Branch, DTP, NCI, 2025):
pIC50: −log10 of the molar value.

Tested on: 966289-007-R4-J1-PDC complex spheroid viability
Assay: Anticancer human tumor 966289-007-R4-J1-PDC patient-derived pancreatic adenocarcinoma cell line growth inhibition [RAS]
Settings: for pIC50: curve of first compound; for viability, T/C: stronger effect = lower value
Procedure, shortened: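 Multi-cell-type spheroids: tumor cells plus HUVEC endothelial cells and mesenchymal stem cells. RAS-pathway inhibitors were combined with targeted agents, each dosed in half-log steps down from clinical Cmax, or from 10 microM when Cmax was unknown.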

[1] = second compound 0.000949 µM, first compound 0.0316 µM
[2] = second compound 0.000949 µM, first compound 0.1 µM
[3] = second compound 0.000949 µM, first compound 0.316 µM
[4] = second compound 0.000949 µM, first compound 1 µM
[5] = second compound 0.000949 µM, first compound 3.16 µM
[6] = second compound 0.000949 µM, first compound 10 µM
[7] = second compound 0.003 µM, first compound 0.0316 µM
[8] = second compound 0.003 µM, first compound 0.1 µM
[9] = second compound 0.003 µM, first compound 0.316 µM
[10] = second compound 0.003 µM, first compound 1 µM
[11] = second compound 0.003 µM, first compound 3.16 µM
[12] = second compound 0.003 µM, first compound 10 µM
[13] = second compound 0.00949 µM, first compound 0.0316 µM
[14] = second compound 0.00949 µM, first compound 0.1 µM
[15] = second compound 0.00949 µM, first compound 0.316 µM
[16] = second compound 0.00949 µM, first compound 1 µM
[17] = second compound 0.00949 µM, first compound 3.16 µM
[18] = second compound 0.00949 µM, first compound 10 µM
[19] = second compound 0.03 µM, first compound 0.0316 µM
[20] = second compound 0.03 µM, first compound 0.1 µM
[21] = second compound 0.03 µM, first compound 0.316 µM
[22] = second compound 0.03 µM, first compound 1 µM
[23] = second compound 0.03 µM, first compound 3.16 µM
[24] = second compound 0.03 µM, first compound 10 µM
[25] = second compound 0.0949 µM, first compound 0.0316 µM
[26] = second compound 0.0949 µM, first compound 0.1 µM
[27] = second compound 0.0949 µM, first compound 0.316 µM
[28] = second compound 0.0949 µM, first compound 1 µM
[29] = second compound 0.0949 µM, first compound 3.16 µM
[30] = second compound 0.0949 µM, first compound 10 µM
[31] = second compound 0.3 µM, first compound 0.0316 µM
[32] = second compound 0.3 µM, first compound 0.1 µM
[33] = second compound 0.3 µM, first compound 0.316 µM
[34] = second compound 0.3 µM, first compound 1 µM
[35] = second compound 0.3 µM, first compound 3.16 µM
[36] = second compound 0.3 µM, first compound 10 µM
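Also: spheroids exposed to agents for one week before readout.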
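For viability, T/C in this document: percent viability relative to DMSO vehicle control wells as 100%.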

`CC1(O)CCCC1n1c(=O)c(C(F)F)cc2cnc(NC3CCN(S(C)(=O)=O)CC3)nc21` (centres undefined) + CCn1c(-c2cccnc2C(C)OC)c2c3cc(ccc31)N1CCOC(CC(NC(=O)C(C(C)C)N(C)C(=O)C3(F)CCN(C(=O)C#CC(C)(C)N(C)C)CC3)C(=O)N3CCCC(N3)C(=O)OCC(C)(C)C2)C1 showed a pIC50 (second compound 0.000949 µM) of 6.90, a pIC50 (second compound 0.003 µM) of 6.81 and a pIC50 (second compound 0.00949 µM) of 6.81. For the same compound, the pIC50 (second compound 0.03 µM) was 7.09, the pIC50 (second compound 0.0949 µM) was 6.97 and the pIC50 (second compound 0.3 µM) was 6.97. It also gave a viability, T/C [1] of 102%, a viability, T/C [2] of 57.9% and a viability, T/C [3] of 21.9%. It also gave a viability, T/C [4] of 24.9%, a viability, T/C [5] of 20.7% and a viability, T/C [6] of 3.78%. For the same compound, the viability, T/C [7] was 115%, the viability, T/C [8] was 67.3% and the viability, T/C [9] was 21.2%. For the same compound, the viability, T/C [10] was 22.8%, the viability, T/C [11] was 23.8% and the viability, T/C [12] was 4.11%. It also gave a viability, T/C [13] of 83.1%, a viability, T/C [14] of 68.5% and a viability, T/C [15] of 19.7%. For the same compound, the viability, T/C [16] was 18.9%, the viability, T/C [17] was 23.4% and the viability, T/C [18] was 2.04%. For the same compound, the viability, T/C [19] was 91.6%, the viability, T/C [20] was 41.3% and the viability, T/C [21] was 18.8%. The viability, T/C [22] was 21.4%, the viability, T/C [23] was 24.4% and the viability, T/C [24] was 1.8%. The viability, T/C [25] was 99.3%, the viability, T/C [26] was 51.8% and the viability, T/C [27] was 16.9%. It also gave a viability, T/C [28] of 21.4%, a viability, T/C [29] of 26% and a viability, T/C [30] of 1.18%. For the same compound, the viability, T/C [31] was 64.1%, the viability, T/C [32] was 52.2% and the viability, T/C [33] was 16%. It also gave a viability, T/C [34] of 23.2%, a viability, T/C [35] of 24.1% and a viability, T/C [36] of 1.49%.
In the case of `CCC(CC)c1cc(NC2CCC(N)C2)n2nccc2n1` (centres undefined) + CCn1c(-c2cc(N3CCN(C)CC3)cnc2C(C)OC)c2c3cc(ccc31)-c1csc(n1)CC(NC(=O)C1CC1C)C(=O)N1CCCC(N1)C(=O)OCC(C)(C)C2, the pIC50 (second compound 0.000949 µM) was 5.84, the pIC50 (second compound 0.003 µM) was 5.81 and the pIC50 (second compound 0.00949 µM) was 5.75. It also gave a pIC50 (second compound 0.03 µM) of 5.78, a pIC50 (second compound 0.0949 µM) of 5.73 and a pIC50 (second compound 0.3 µM) of 5.73. For the same compound, the viability, T/C [1] was 111%, the viability, T/C [2] was 89.1% and the viability, T/C [3] was 99.3%. For the same compound, the viability, T/C [4] was 71.5%, the viability, T/C [5] was 1.75% and the viability, T/C [6] was 1.38%. The viability, T/C [7] was 72.2%, the viability, T/C [8] was 98.3% and the viability, T/C [9] was 89.2%. The viability, T/C [10] was 79.2%, the viability, T/C [11] was 2.05% and the viability, T/C [12] was 1.33%. It also gave a viability, T/C [13] of 81.7%, a viability, T/C [14] of 103% and a viability, T/C [15] of 81.9%. It also gave a viability, T/C [16] of 131%, a viability, T/C [17] of 1.93% and a viability, T/C [18] of 1.58%. The viability, T/C [19] was 72.3%, the viability, T/C [20] was 86.8% and the viability, T/C [21] was 92.5%. It also gave a viability, T/C [22] of 98.9%, a viability, T/C [23] of 1.68% and a viability, T/C [24] of 2.28%. The viability, T/C [25] was 86.2%, the viability, T/C [26] was 111% and the viability, T/C [27] was 107%. It also gave a viability, T/C [28] of 119%, a viability, T/C [29] of 1.88% and a viability, T/C [30] of 1.55%. The viability, T/C [31] was 75.7%, the viability, T/C [32] was 116% and the viability, T/C [33] was 116%. For the same compound, the viability, T/C [34] was 117%, the viability, T/C [35] was 2.08% and the viability, T/C [36] was 1.97%.
